Results from ChEMBL document CHEMBL1142091, “Azithromycin selectively reduces tumor necrosis factor alpha levels in cystic fibrosis airway epithelial cells” (2007).
Active and inactive are the calls of the source. No cut-off for these calls is given here.

Experiments:
[1] = test system: IB3-1; experiment: Reduction of NF-kappaB binding to DNA in cystic fibrosis IB3-1 cells at 8 ug after 24 hrs; format: functional
[2] = species on record: Homo sapiens; experiment: (§1) Reduction of NF-kappaB binding to DNA in cystic fibrosis 16HBE14o-AS3 cells at 8 ug after 24 hrs; format: functional
[3] = species on record: Homo sapiens; experiment: (§2) Reduction of NF-kappaB binding to DNA in cystic fibrosis 2CFSMEo cells at 8 ug after 24 hrs; format: functional
[4] = test system: IB3-1; experiment: Reduction of Sp1 binding to DNA in cystic fibrosis IB3-1 cells at 8 ug after 24 hrs; format: functional
[5] = species on record: Homo sapiens; experiment: (§3) Reduction of Sp1 binding to DNA in cystic fibrosis 16HBE14o-AS3 cells at 8 ug after 24 hrs; format: functional
[6] = species on record: Homo sapiens; experiment: (§4) Reduction of Sp1 binding to DNA in cystic fibrosis 2CFSMEo cells at 8 ug after 24 hrs; format: functional
[7] = test system: IB3-1; experiment: Reduction of TNFalpha mRNA level in cystic fibrosis IB3-1 cells at 8 ug after 24 hrs relative to control; format: functional, Homo sapiens; design: scale not given: the % may be the effect or the level left
[8] = Reduction of TNFalpha mRNA level in cystic fibrosis 16HBE14o-AS3 cells at 8 ug after 24 hrs relative to control; format: functional, Homo sapiens; design: scale not given: the % may be the effect or the level left
[9] = Reduction of TNFalpha mRNA level in cystic fibrosis 2CFSMEo cells at 8 ug after 24 hrs relative to control; format: functional, Homo sapiens; design: scale not given: the % may be the effect or the level left
[10] = test system: IB3-1; experiment: Reduction of TNFalpha protein level in cystic fibrosis IB3-1 cells at 8 ug after 24 hrs by ELISA relative to control; format: functional, Homo sapiens; design: scale not given: the % may be the effect or the level left
[11] = Reduction of TNFalpha protein level in cystic fibrosis 16HBE14oAS3 cells at 8 ug after 24 hrs by ELISA relative to control; format: functional, Homo sapiens; design: scale not given: the % may be the effect or the level left
[12] = Reduction of TNFalpha protein level in cystic fibrosis 2CFSMEo cells at 8 ug after 24 hrs by ELISA relative to control; format: functional, Homo sapiens; design: scale not given: the % may be the effect or the level left
[13] = as §1; format: functional, Homo sapiens; design: scale not given: the % may be the effect or the level left
[14] = as §2; format: functional, Homo sapiens; design: scale not given: the % may be the effect or the level left
[15] = as §3; format: functional, Homo sapiens; design: scale not given: the % may be the effect or the level left
[16] = as §4; format: functional, Homo sapiens; design: scale not given: the % may be the effect or the level left
[17] = Cell viability of IB3-1 cells at 8 ug/ml after 24 hrs by trypan blue exclusion test; format: functional, cell-based; details: Homo sapiens
[18] = Cell viability of 16HBE14o-AS3 cells at 8 ug/ml after 24 hrs by trypan blue exclusion test; format: functional; details: Homo sapiens
[19] = Cell viability of 16HBE14o-S1 cells at 8 ug/ml after 24 hrs by trypan blue exclusion test; format: functional, cell-based; details: Homo sapiens
[20] = Cell viability of 2CFSMEo cells at 8 ug/ml after 24 hrs by trypan blue exclusion test; format: functional; details: Homo sapiens
[21] = Cell viability of IB3-1 cells at 16 ug/ml after 24 hrs by trypan blue exclusion test; format: functional, cell-based; details: Homo sapiens
[22] = Cell viability of 16HBE14o-AS3 cells at 16 ug/ml after 24 hrs by trypan blue exclusion test; format: functional; details: Homo sapiens
[23] = Cell viability of 16HBE14o-S1 cells at 16 ug/ml after 24 hrs by trypan blue exclusion test; format: functional, cell-based; details: Homo sapiens
[24] = Cell viability of 2CFSMEo cells at 16 ug/ml after 24 hrs by trypan blue exclusion test; format: functional; details: Homo sapiens
[25] = Cell viability of C38 cells at 8 ug/ml after 24 hrs by trypan blue exclusion test
[26] = Cell viability of C38 cells at 16 ug/ml after 24 hrs by trypan blue exclusion test

Compound: CO[C@@H]1[C@@H](O[C@@H]2O[C@H](C)[C@@H](O[C@H]3C[C@@](C)(O)[C@@H](OC(=O)CC(C)C)[C@H](C)O3)[C@H](N(C)C)[C@H]2O)[C@@H](CC=O)C[C@@H](C)[C@@H](O)/C=C/C=C/C[C@@H](C)OC(=O)C[C@H]1OC(C)=O
- Activity ([1]; Homo sapiens): inactive
- Activity [2]: inactive
- Activity [3]: inactive
- Activity ([4]; Homo sapiens): inactive
- Activity [5]: inactive
- Activity [6]: inactive

Compound: CC[C@H]1OC(=O)[C@H](C)[C@@H](O[C@H]2C[C@@](C)(OC)[C@@H](O)[C@H](C)O2)[C@H](C)[C@@H](O[C@@H]2O[C@H](C)C[C@H](N(C)C)[C@H]2O)[C@](C)(O)C[C@@H](C)CN(C)[C@H](C)[C@@H](O)[C@]1(C)O [AZITHROMYCIN]
- Activity [7]: 35%
- Activity [8]: 25%
- Activity [9]: 30%
- Activity [10]: 45%
- Activity [11]: 50%
- Activity [12]: 40%
- Activity [1]: 40%
- Activity [13]: 45%
- Activity [14]: 45%
- Activity [4]: 60%
- Activity [15]: 64%
- Activity [16]: 65%
- Activity [17]: > 95%
- Activity [18]: > 95%
- Activity [19]: > 95%
- Activity [20]: > 95%
- Activity [21]: < 95%
- Activity [22]: < 95%
- Activity [23]: < 95%
- Activity [24]: < 95%
- Activity [25]: >95%
- Activity [26]: <95%
